Experimental data taken from a melting point compilation (Tetko et al.; mined from patent text by program, amines drawn as free bases though some values may be those of a salt).

melting point [°C] | Structure (SMILES)
50 | COC(=O)[C@@H]1CCCN1S(=O)(=O)c1ccc(C)c(COc2cccc3c(C)cc(C)nc23)c1C
132 to 134 | Cc1ccc(S(=O)(=O)OCC2Cc3cccc(Nc4ccc(Cl)cc4)c3O2)cc1 (stereo unspecified)
103 to 105 | C[C@@H](Cn1ncc2ccc(O)c(Br)c21)O[Si](C)(C)C(C)(C)C
171 to 173 | COc1cccc2c(Nc3ccccc3C)c(C(C)=O)cnc12
172 to 174 | COc1cc2c(c3c1OC(C)(C)C3)C(c1cccc(OCC(N)=O)c1)=NC(C)(C)C2
108 to 110 | Cc1c(-c2ccccc2)sc2ccc(Cl)cc12
189 to 193 | O=C(O)c1cccn2c(=O)c3c(nc12)CCC3
> 300 | COC(=O)Nc1nc2cc(-c3noc4ccccc34)ccc2[nH]1
232 to 235 | CCn1nc(-c2sc(N)nc2-c2ccccc2)ccc1=O
178 to 179 | O=C1Nc2ccc(Cl)cc2C(C#Cc2ccccc2)(C(F)(F)F)O1 (single isomer, unassigned; (-))
148 to 154 | N#CCCNC(=O)c1cccc(-c2ccc3c(c2)N(c2ccc(Cl)cc2Cl)CC3)c1
143 to 145 | COc1ccc(-c2ccccn2)c(NC(=O)CC(C)NC(=O)OC(C)(C)C)c1 (stereo unspecified)
232 to 235 | CC(C)(C)Oc1c(-c2ccc(S(C)(=O)=O)cc2)cnn(-c2cccc(Cl)c2)c1=O
149 to 150 | CC1(C)CCC(C)(C)c2cc(OCc3ccc(C#N)cc3)ccc21
111 to 112 | CC(C)NC(=O)OCC(=O)c1ccc(C2CCCCC2)cc1
242 | O=C1CC[C@@H]2c3ccc(Cl)cc3CCC2N1 (stereo partly specified)
197 to 200 | N#Cc1cccc(C(=O)Nc2ccccc2N)c1
124 to 126 | COc1ccc(CNc2ncnc3c(N4CCOCC4)nc(N4CCC(N(C)C)CC4)nc23)cc1
184 to 186 | CN(C)C(=O)c1ccc(-c2ccc(N)cc2)cc1
149 to 150 | N#Cc1ccc(CC(=O)Cc2ccc(C#N)cc2)cc1
233 to 235 | CC=C1CCC2C3CCC4CC(O)CCC4(C)C3C(=NO)CC12C (stereo unspecified)
121 to 122 | COCOc1cc(Cl)ccc1-c1cc(-c2cccc(C(=O)NCCCn3ccnc3)c2)c(C#N)c(NC(=O)c2ccco2)n1
211 to 214 | CC(C)Oc1cccc2c1C1=NCCN1c1c(-c3noc(C4CC4)n3)ncn1-2
131 to 133 | COc1ccc2c3ccnc(C)c3n(Cc3ccccc3)c2c1

melting point [°C] | Structure (SMILES)
90 to 92 | Brc1ccc(-c2cc3cc(-c4ccccc4)ccc3o2)cc1
279 to 283 | Cn1ncc2[nH]c3ccc(Cc4cccc([N+](=O)[O-])c4)cc3c(=O)c21
158 to 161 | Cc1cccc(C(=O)CC(Cc2ccccc2)C(=O)O)c1 (stereo unspecified)
94 | O=[N+]([O-])c1ccc(Oc2ccc(C(F)(F)F)cn2)cc1NCP(=O)(O)O
277 to 279 | CC(=O)Nc1cc2cc([N+](=O)[O-])ccc2oc1=O
192 to 194 | COC1C(O)C(CO)OC1n1cc(C(F)(F)F)c(=O)[nH]c1=O (stereo unspecified)
159 to 160 | CC(C)OC(=O)C1=C2SCC(=CC(=O)N(C)C)N2CC1
130 to 132 | NS(=O)(=O)NC(=O)CCCCCC1CCSS1 (stereo unspecified)
> 250 | CC(Cc1ccc(C(=O)N[C@@H](CCC(=O)O)C(=O)O)cc1)C1CNc2nc(N)nc(O)c2C1 (stereo partly specified)
115 to 116 | CCCCC[C@H]1CC[C@H](c2ccc(-c3ccc(C=O)cc3)cc2)CC1
157 to 160 | Cn1nc(-c2ccccc2)c(O)c1-c1ccccc1
69 | CC(C)n1nc(CS(C)=O)cc1O (stereo unspecified)
35 to 36 | NN=C(c1cccc(F)c1)c1cccc(F)c1
141 | Cc1ccc(Cc2cc(C)c(C)c(=O)n2O)c(C)c1
108 to 109 | COC(=O)C1(C)c2ccccc2-c2ccccc21
225 to 227 | COc1ccc(C2=NNS(=O)(=O)Cc3cc4nsnc4cc32)cc1
184 to 185 | Cc1cc(C)n(-c2nc(Nc3cccc4cccnc34)c3ccccc3n2)n1
210 | C#CCOc1ccc(-c2nc3cnccc3[nH]2)c(OC)c1
71 to 74 | CCCCCCC(O)c1ccc2cc(OC)ccc2c1 (stereo unspecified)
124 to 126 | CCOC(=O)ON(C(N)=O)[C@H]1C[C@@H](c2ccc(F)cc2)C1
170 to 172 | COC(=O)c1nc2n(n1)-c1ccccc1N(c1cccc(C)c1C)C2
163 to 164 | CCCc1nccn1S(=O)(=O)c1c[nH]cn1
83 to 85.5 | O=C1C(CCO)Oc2ccccc2N1Cc1ccccc1 (stereo unspecified)
200 to 202 | O=c1[nH]c(C(F)(F)C(F)(F)F)nc2ncc(Br)cc12

melting point [°C] | Structure (SMILES)
152 to 153 | NC(=S)c1nccn1Cc1cccs1
154 | CCCC1CCC(C2CCC(C3CCC(C(=O)OC)C(=O)C3)CC2)CC1 (stereo unspecified)
112 to 114 | Cn1c(Cl)c(C#N)c2ccccc21
146 to 149 | O=C(CCl)Nc1cc(Oc2ncccc2C(F)(F)F)c(Cl)cc1F
102 | CC(C)=NOCC(C)OC(=O)COc1ccc(Cl)c2cccnc12 (stereo unspecified)
95 to 98 | COc1ccc(CNC(=O)[C@@H](NC(=O)[C@H](NCc2cccc3ccccc23)[C@H](O)[C@H](Cc2ccccc2)NC(=O)OC(C)(C)C)C(C)C)c(O)c1
107 to 117 | Cc1cccc(-c2[nH]c(C(C)C)nc2-c2cccc(-c3ccc(N)cc3)c2)n1
74 to 76 | CC(C)NCC(O)COc1nccnc1C1CNCCO1 (stereo unspecified)
194 to 196 | COc1cc2c(cc1OC)C(C(=O)O)C(c1ccc(OCc3ccccc3)c(OCc3ccccc3)c1)N(C)C2=O (stereo unspecified)
175 to 177 | CCS(=O)(=O)Nc1cc(C(=O)Nc2ccccc2)ccc1OC
127 to 128 | CCOC(=O)c1cn(Cc2ccccc2)nc1OCc1ccc(OCc2nc(-c3ccco3)oc2C)c(OCc2ccccc2)c1
109 to 111 | N#Cc1cccc2c1CCCc1ccccc1-2
215 to 220 | Cc1ccc2c(c1)C=Cc1cc(C(C)C)ccc1C2c1cn(-c2ccnc(NCC(=O)Nc3nc(CC(=O)O)cs3)n2)c(=O)[nH]c1=O (stereo unspecified)
> 300 | Oc1ccc(-c2nc3ccc(O)cc3o2)cc1
129 to 131 | CCN(CC)Cc1cc(C(N)=O)ccc1N
66 | COC(C)(CC(=O)NC1CCCCC1)OC
107 to 112 | CN(CC(=O)N(C)c1ccc(OCC(=O)N[C@@H](CC(N)=O)C(=O)[C@@H](C(N)c2ccccc2)[C@H](O)C(=O)N2CCC[C@H]2C(=O)NC(C)(C)C)cc1)c1ccccc1 (stereo partly specified)
87 to 92 | CCC1(CCO)C(=O)N2CC=CC(C(=O)OC)N2C1=O (stereo unspecified)
182 to 184 | COc1cc(OC)cc(-c2nc[nH]c2-c2ccc(OC(F)(F)F)c(N)c2)c1
124 to 127 | Oc1cc(Oc2ncc(C(F)(F)F)cc2Cl)ccc1Br
94 to 95 | O=Cc1ccc(OCc2ccccc2)c(F)c1
205 | CCOC(=O)C1=C(C)Nc2nc(N3CCOCC3)nc(N3CCOCC3)c2C1c1cccs1 (stereo unspecified)
148 to 150 | CC(C)=CC(=O)OC(COc1ccc(C(=O)c2ccccc2)c(O)c1)COc1ccc(C(=O)c2ccccc2)c(O)c1
119 to 120 | O=C(O)C(Cc1ccc(OCCN2c3ccccc3Oc3ccccc32)cc1)Oc1ccccc1 (stereo unspecified)

melting point [°C] | Structure (SMILES)
177 to 178 | CCOC(=O)CCCn1c(Nc2c(C)nn(C)c2C)nc2c(Cl)ccc(C(CC)CC)c21
115 to 117 | CCOC(=O)C1=C[C@@H](OC(CC)CC)[C@H](NC(C)=O)[C@@H](N=[N+]=[N-])C1
177 to 178 | O=C1CCCc2c1c1cccc(F)c1n2Cc1ccc(F)cc1
41 to 43 | CC(=O)c1cccc([N+](=O)[O-])c1Cl
116 to 119 | CCC12CCC3=C(CC(C)c4cc(OC)ccc43)C1=CCC21OCCO1 (stereo unspecified)
71.5 to 74.5 | O=S(=O)(Cc1ccccc1)N(c1ncc(-c2ccccc2)nc1Cc1ccccc1)S(=O)(=O)Cc1ccccc1
73 to 80 | C=CCc1ccccc1OC[C@@H](O)CNCCc1ccc(NC2CCN(C(=O)NCCCCCCCC)CC2)cc1
134 to 136 | CC(=O)C(=Cc1cc(Cl)c(S(C)(=O)=O)c(Cl)c1)C(C)=O
211 to 213 | FC(F)(F)c1cccc(Nc2ccccc2-c2n[nH]c(=S)o2)c1
79 to 80 | OC(c1cccnc1)c1cc(F)ccc1F (stereo unspecified)
178 to 180 | Nc1n[nH]c2nc(N3CCOCC3)cc(-c3ccccc3)c12
172 to 174 | CCc1ccccc1N(C=C(C#N)C#N)N=C(C#N)C#N
> 300 | O=c1[nH]c2ccccc2cc1-c1csc(NS(=O)(=O)c2ccc(Cl)cc2)n1
149 to 150 | Cc1ccc(S(=O)(=O)OC[C@H]2OC(=O)N[C@H]2Cc2ccccc2)cc1
98 to 100 | CCCCCCCCCCCCS(=O)CCOc1ccc(CCC(=O)C(F)(F)F)cc1 (stereo unspecified)
104 to 109 | CN(C)CCC1CN(C)C(=S)c2cc([N+](=O)[O-])ccc2O1 (stereo unspecified)
137 to 139 | CCCc1c(OCCCCCCc2ccc(C(=O)c3cccc(C(=O)O)c3)cc2CCC(=O)O)ccc2c1OCCC2=O
148 to 149 | CCOC(=O)CC(=O)c1cc(F)c(OC)nc1Nc1ccc(F)cc1F
200 | O=C(c1ccc(F)cc1)C1CCN(CCCn2c(=S)[nH]c3ccccc3c2=O)CC1
116 | COC(=O)CCCN1CCC(NC(=O)c2ccccc2)CC1
51 to 52 | N#Cc1nccn1Cc1ccccc1

Structure (SMILES) | melting point [°C]
CNC(=O)ON=CC=NOC(C)=O | 138
c1ccc2c(c1)CCCC2c1c[nH]cn1 (stereo unspecified) | 105 to 110
CN(C)C(=O)ON=C1n2ccnc2SC1(C)C | 99 to 102
CCC(C)(C)NCC(O)c1ccc(N)c(C#N)c1 (stereo unspecified) | 143
Nc1ncc(CN2CC=C(c3ccc(F)cc3)CC2)c(N)n1 | 265
O=c1[nH]c2cc(Cl)ccc2n1C1CCNCC1 | 200 to 206
CCOC(=O)c1ncc2[nH]c3cccc(OCc4ccccc4)c3c2c1COC | 130 to 131
CC1C2=CCC3C(CCC4(C)C(O)CCC34)C2(C)CCC1O (stereo unspecified) | 210 to 214
